The supplement of paper PMC10307832

Legend:
Experiment in all cases: relative viability (nuclei count vs DMSO), 5 days (fraction); higher = more cells survive
[1] = compound: C=CC(=O)N1CCC[C@@H](n2nc(-c3ccc(Oc4ccccc4)cc3)c3c(N)ncnc32)C1 [Ibrutinib] + COc1cc2c(Oc3ccc(NC(=O)C4(C(=O)Nc5ccc(F)cc5)CC4)cc3F)ccnc2cc1OCCCN1CCOCC1 [Foretinib] (partner 0.25 µM)
Procedure, shortened: (§1)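 Five library-drug doses in √10 steps were combined with a fixed anchor-drug dose, or a single drug was given alone, by pin tool to lung cancer cell lines in 1536-well plates the day after seeding. Nuclei were stained and counted after 5 days. Relative viability is the nuclei count in treated wells over that in vehicle wells, taken as the median of duplicate plates.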

[2] = compound: C=CC(=O)Nc1cc(-n2c(=O)ccc3cnc4ccc(-c5ccc(NS(C)(=O)=O)cc5)cc4c32)ccc1C [BMX-IN-1] + Nc1nc2[nH]cc(CCc3ccc(C(=O)N[C@@H](CCC(=O)O)C(=O)O)cc3)c2c(=O)[nH]1 [Pemetrexed] (partner 0.2 µM)
Procedure, shortened: as §1

[3] = compound: C=CCc1cccc(/C=N/NC(=O)CN2CCN(Cc3ccccc3)CC2)c1O [PAC-1] + Cc1cc(Nc2cc(N3CCN(C)CC3)nc(Sc3ccc(NC(=O)C4CC4)cc3)n2)n[nH]1 [Tozasertib] (partner 0.1 µM)
Procedure, shortened: as §1

[4] = compound: C=CCc1cccc(/C=N/NC(=O)CN2CCN(Cc3ccccc3)CC2)c1O [PAC-1] + Nc1ncn([C@H]2C[C@H](O)[C@@H](CO)O2)c(=O)n1 [Decitabine] (partner 2 µM)
Procedure, shortened: as §1

Cell Line	relative viability ([1]; first compound 0.005 µM)	relative viability ([1]; first compound 0.01581 µM)	relative viability ([1]; first compound 0.05 µM)	relative viability ([1]; first compound 0.1581 µM)	relative viability ([1]; first compound 0.5 µM)	relative viability ([2]; first compound 0.02 µM)	relative viability ([2]; first compound 0.2 µM)	relative viability ([2]; first compound 0.6325 µM)	relative viability ([2]; first compound 2 µM)	relative viability ([3]; first compound 0.02 µM)	relative viability ([3]; first compound 0.06325 µM)	relative viability ([3]; first compound 0.2 µM)	relative viability ([3]; first compound 2 µM)	relative viability ([4]; first compound 0.02 µM)	relative viability ([4]; first compound 0.06325 µM)	relative viability ([4]; first compound 0.2 µM)	relative viability ([4]; first compound 2 µM)
NCI-H2085	0.916	0.628	0.941	1.1	0.625	0.968	0.823	0.923	0.909	0.787	0.81	0.797	0.796	0.554	0.504	0.572	0.492
HCC-78	0.651	0.489	0.527	0.547	0.348	0.971	0.989	0.935	0.913	0.486	0.399	0.496	0.342	0.749	0.639	0.529	0.649
NCI-H647		1.13	1.23	1.25	1.17	0.162	0.169	0.15	0.142	0.336	0.403	0.256	0.242	0.358	0.403	0.328	0.321
NCI-H1299	0.557	1.07	1.14	1.09	1.11												
LU99A	0.734	0.703	0.856	0.945	0.497	0.198	0.226	0.183	0.141	0.309	0.254	0.247	0.286	0.826	0.773	0.801	0.881
A549	0.878	0.852	1.03	0.984	0.877									0.342	0.267	0.138	0.253
HARA	0.917	0.717	0.705	0.933	0.403	0.257	0.271	0.282	0.255	0.108	0.115	0.136	0.111	0.573	0.688	0.507	0.487
NCI-H1944	0.891	0.734	0.72	0.879	0.605	0.632	0.746	0.603	0.592	0.231	0.247	0.236	0.246	0.435	0.459	0.466	0.456
LCLC-103H	0.809	0.623	0.792	0.835	0.728	0.444	0.546	0.467	0.418	0.56	0.492	0.494	0.463	0.725	0.784	0.71	0.736
NCI-H1792						0.903	1.28	0.885	1.17					0.539	0.521	0.482	0.483
Calu-6	0.961	0.853	0.918	0.844	0.826												
SW 900			0.861	0.683	0.836	0.529	0.5	0.485	0.425	0.581	0.61	0.473	0.465		0.393	0.478	0.378
LOU-NH91	0.861	0.769	0.679	0.913	0.568		0.406	0.392	0.366	0.624	0.7	0.645	0.679	0.813	0.813	0.811	0.796
HCC-366	1.04	0.909	0.958	0.866	0.881	0.163	0.183	0.165	0.202	0.117	0.0944	0.121	0.0773	0.373	0.303	0.264	0.337
CAL-12T	1.11	0.958	0.981	1.14	1.19	1.27	1.36	1.37	1.15	0.265	0.315	0.327	0.293				
NCI-H1355	0.863	0.88	0.848	0.981	0.793	1.1	1.1	1.06	1.04	0.536	0.568	0.569	0.564	0.32	0.363	0.335	0.373
ABC-1	1.27	0.961	1.28	1.09	0.897					0.144	0.186	0.197	0.195	0.809	1.06	1.05	1.16
NCI-H2405	1.11	1.07	1.08	1.06		1.13	1.19	1.09	0.94	0.688	0.737	0.74	0.786	0.759	0.821	0.707	0.765
NCI-H1648						0.733	0.721	0.875	0.765	0.6	0.606	0.464	0.488	0.415	0.577	0.452	0.551
NCI-H650	1.07	0.94	1.09	1.25	1.17	0.926	0.961	0.956	0.919	0.73	0.791	0.749	0.721	0.307	0.331	0.298	0.45
NCI-H2228	0.845		0.915	0.892	0.609	0.408	0.331	0.396	0.325	0.228	0.258	0.263	0.234				
EPLC-272H	0.675	0.474	0.409	0.584	0.434	0.304	0.278	0.235	0.316	0.257	0.314	0.273	0.278	0.369	0.39	0.342	0.324
SK-LU-1	0.857	0.804	0.814	0.926	0.719	1.13	1.27	0.962	0.95	0.314	0.332	0.341	0.294	0.651	0.627	0.293	0.654

Cell Line	relative viability ([1]; first compound 0.005 µM)	relative viability ([1]; first compound 0.01581 µM)	relative viability ([1]; first compound 0.05 µM)	relative viability ([1]; first compound 0.1581 µM)	relative viability ([1]; first compound 0.5 µM)	relative viability ([2]; first compound 0.02 µM)	relative viability ([2]; first compound 0.2 µM)	relative viability ([2]; first compound 0.6325 µM)	relative viability ([2]; first compound 2 µM)	relative viability ([3]; first compound 0.02 µM)	relative viability ([3]; first compound 0.06325 µM)	relative viability ([3]; first compound 0.2 µM)	relative viability ([3]; first compound 2 µM)	relative viability ([4]; first compound 0.02 µM)	relative viability ([4]; first compound 0.06325 µM)	relative viability ([4]; first compound 0.2 µM)	relative viability ([4]; first compound 2 µM)
PC-3 [JPC-3]	1.05	0.936	0.891	1.09	0.547	0.933	1.28	1.44	1.04	0.883	0.859	0.842	0.857	0.938	0.861	0.698	0.77
ChaGo-K-1	0.842	0.902	0.937	0.954	0.853	0.238	0.305	0.25	0.39	0.214	0.217	0.223	0.218	0.522	0.506	0.458	0.54
NCI-H3122	1.02	0.984	1.04	0.938	1.04	0.203	0.206	0.19	0.19	0.421	0.425	0.394	0.344	0.489	0.455	0.362	0.446
NCI-H1703		0.322	0.317	0.307	0.338												
NCI-H2126		1.03	1.24	1.25	1.02	0.777	0.7	0.705	0.721	0.919	0.829	0.82	0.821	0.589	0.584	0.541	0.612
NCI-H1993	0.74	0.72	0.759	0.783	0.62	0.65	0.669	0.645	0.622	0.635	0.541	0.469	0.548	0.737	0.58	0.595	0.541
NCI-H1793		0.566	0.552	0.545	0.416	0.945	1.01	0.966	0.806	0.316	0.338	0.439	0.238	0.48	0.589	0.396	0.542
NCI-H441	0.898	1.11	1.1	1.08	0.895	0.225	0.267	0.282	0.256	0.754	0.597	0.505	0.606	0.256	0.258	0.171	0.23
H3255	0.66	0.986	0.711	0.993	0.53	0.52	0.583	0.686	0.563	0.66	0.656	0.606	0.638	0.593	0.849	0.534	0.63
NCI-H2087	1.18	1.21	1.09		1.24	0.725	0.715	0.669	0.625	0.197	0.252	0.281	0.259	0.303	0.305	0.233	0.28
NCI-H661	1.06	0.839	0.842	0.984	0.616	1.02	0.96	0.961	0.899	0.364	0.332	0.348	0.331	0.526	0.53	0.439	0.506
COR-L 105	1	0.933	0.969	1.04	0.602	1.2	1.07	1.3	1.04	0.318	0.323	0.383	0.374	0.63	0.71	0.707	0.696
BEN		0.724	0.418	0.444	0.672	0.701	0.768	0.866	0.708	0.621	0.541	0.511	0.466	0.644	0.72	0.613	0.642
NCI-H2023	0.747	0.721	0.562	0.975	0.459	0.285	0.304	0.226	0.26	0.404	0.355	0.382	0.347	0.216	0.217	0.182	0.182
UMC-11	1.04	1.03	1.04	0.993	1.02	0.92	0.792	0.754	0.754	0.204	0.202	0.212	0.187	0.668	0.681	0.265	0.68
NCI-H727	0.911	0.785	0.914		0.695					0.679	0.585	0.589	0.602	0.982	0.809	0.772	0.98
NCI-H522						1	1.03	1.12	1.14	0.598	0.582	0.62	0.469	0.607	0.641	0.614	0.697
NCI-H1563	0.985	0.92	0.935	0.998	0.88	0.748	0.769	0.724	0.675								
NCI-H1623	0.8	0.701	0.568	0.692	0.289					0.42	0.43	0.427	0.482				
HCC-44						0.727	0.663	0.625	0.678	0.989	1.04	0.94	0.877	1.03	0.914	0.855	0.933
IA-LM	1.11	1.04	1.1	1.24	1.1												
EBC-1	0.0898	0.102	0.102	0.0945	0.098												
